As a reminder, the IC50 is the point on the concentration scale where inhibition reaches its midpoint. In general, CC50 refers to the concentration at which the toxic effect on the cells reaches its halfway point.

Data set [1] relates to human cervix carcinoma cells (HeLa). Briefly: Antiproliferative effect on HeLa cells. The settings on record: read-out: IC50 HeLa. Format: cell-based.
Data set [2] relates to murine leukemia cells (L1210). The data set can be described thus: Antiproliferative effect on L1210 cells. The format is cell-based.
Data set [3] concerns human T-lymphocyte cells (CEM). The data set can be described thus: Antiproliferative effect on CEM cells. The format is cell-based. As to conditions: read-out: IC50 CEM.
The test system of data set [4] is Jurkat cells. The data set can be described thus: Cell cycle analysis. Format: cell-based, human.
Data set [5] has as its system Jurkat cells. The data set can be described thus: Mitochondrial depolarization assay. The format is cell-based, human. The settings on record: JC-1, flow cytometry, 5 h. Background: In flow cytometry, cells or beads pass a laser one at a time.
The subject of data set [6] is CCRF-CEM (Acute Lymphoblastic leukemia). Briefly: Differential nuclear staining. As to conditions: Homo sapiens, CCRF-CEM, read-out: CC50 (death of 50% of the cells). The format is cell-based.
Data set [7] in a line: Differential nuclear staining. The format is cell-based. As to conditions: human.
Data set [8] deals with Jurkat cells. Briefly: Annexin V-FITC/PI assay. Format: cell-based, human. As to conditions: 7g at CC50 (2.36 μM) and CC100 (4.72 μM), vs vehicle control.
In data set [9] the test system is caspase-3 in Jurkat cells. The data set can be described thus: Caspase-3 activation assay. Format: cell-based, human. As to conditions: CC50 (2.36 μM) and CC100 (4.72 μM), 7 h, vs controls.
Data set [10] concerns L1210, CEM and HeLa cells. Briefly: Cytotoxicity screening over L1210, CEM and HeLa. As to conditions: read-out: IC50 (range over the cell lines tested), L1210, CEM and HeLa together. Format: cell-based.
Data set [11] relates to Jurkat (Acute T Cell Leukemia). The data set can be described thus: Differential nuclear staining. The format is cell-based. As to conditions: Homo sapiens, Jurkat.
A short description of data set [12]: Differential nuclear staining. Format: cell-based. The settings on record: human. This is another data set of the same source.
Data set [13] in a line: Differential nuclear staining. Format: cell-based. As to conditions: human, Hs27 non-cancerous fibroblast cells.
Where [14] appears, read: read-out: IC50 L1210, L1210 cells, mean ± SEM (n=3).
Setting [15] is: cells treated with the CC50, 48 h.
Where [16] appears, read: Mus musculus, L1210, read-out: IC50 L1210.
Where [17] appears, read: read-out: CC50 (death of 50% of the cells).
[18] abbreviates: read-out: CC50 (range for compounds 7g and 8b).

Where two headings read alike, the source gives them in different places.

On to `COc1ccc(Cc2nn3cc(-c4cc5ccccc5oc4=O)nc3s2)cc1` [Compound 5h], for which the IC50 is 70000 ± 4000 nM in data set [1] (HeLa cells, mean ± SEM (n=3)); 90000 ± 24000 nM in [2] (setting [14]); 5000 ± 3300 nM in [3] (CEM cells, mean ± SEM (n=3)).
For the compound `COc1ccc(Cc2nn3c(SC#N)c(-c4cc5ccccc5oc4=O)nc3s2)cc1` [Compound 7g, 2-(4-methoxybenzyl)-6-(2-oxo-2H-chromen-3-yl)imidazo[2,1-b][1,3,4]thiadiazol-5-yl thiocyanate], the IC50 was 780 ± 130 nM in [1] (Homo sapiens, HeLa); 1600 ± 200 nM in data set [2] (setting [16]); 790 ± 350 nM in data set [3] (Homo sapiens, CCRF-CEM); 780 to 1600 nM in data set [10]. Besides, the “sub-G0/G1 subpopulation (DNA fragmentation)” value with Jurkat cells [4] (7g at CC50 (2.36 μM) and CC100 (4.72 μM), 48 h) is “increase in sub-G0/G1 subpopulation”. For the same compound, in the data set with Jurkat cells [4] (48 h), the “cell population in G2-M phase” value is listed as “increase of the cell population in the G2-M phase”. Moreover, in the data set with Jurkat cells [4] (setting [15]), the “cell population in S phase” value is “increase of cell population in the S phase”. In addition, the “cell subpopulation in G0-G1 phase” value with Jurkat cells [4] (setting [15]) is reported as “decrease of cell subpopulation in the G0-G1 phase”. Besides, in the data set on Jurkat cells [5], the mitochondrial membrane depolarization entry was “not causing mitochondrial membrane depolarization”. Besides, the CC50 is 4730 ± 220 nM in data set [6], 2360 ± 100 nM in [11] (setting [17]) and 1650 to 4730 nM in [11] (setting [18]). The selectivity ratio was found to be 6.65 in data set [7] and 13.3 in data set [12]. Besides, the phosphatidylserine externalization entry in the data set with Jurkat cells [8] was “inducing phosphatidylserine externalization in a dose-response manner”. Besides, in data set [9], the caspase-3 activation entry was “induced statistically significant activation of caspase-3”. The CC50 at 72 h in data set [13] was 31400 ± 740 nM.
On to `c1ccc([C@H]2CN3CCSC3=N2)cc1` [Levamisole, reference compound], for which the IC50 in data set [1] (Homo sapiens, HeLa) was over 250000 nM; in data set [3] (Homo sapiens, CCRF-CEM), over 250000 nM.
In the case of `N[C@@H](Cc1ccc(N(CCCl)CCCl)cc1)C(=O)O` [Melphalan, reference compound], the IC50 amounted to 2130 ± 20 nM in data set [2] (setting [14]) and 1400 ± 400 nM in data set [3] (Homo sapiens, CCRF-CEM).
Regarding `COc1ccc(Cc2nn3c(C=O)c(-c4ccc(Cl)cc4)nc3s2)cc1` [Compound 8b, 6-(4-chlorophenyl)-2-(4-methoxybenzyl)imidazo[2,1-b][1,3,4]thiadiazole-5-carbaldehyde], the IC50 in data set [1] (Homo sapiens, HeLa) was 1300 ± 200 nM; in data set [2] (setting [16]), 1100 ± 200 nM; in [3] (Homo sapiens, CCRF-CEM), 940 ± 120 nM; in [10], 940 to 1300 nM. In addition, the values for the CC50 in data set [6], in data set [11] (setting [17]) and in [11] (setting [18]) were 3620 ± 260 nM, 1650 ± 190 nM and 1650 to 4730 nM, respectively. The results for the selectivity ratio in data set [7] and in data set [12] were 0.65 and 1.43, respectively. The CC50 at 72 h in data set [13] turned out to be 2360 ± 30 nM.

(Values after publication PMC8140528 (Chemistry & biodiversity, 2021).)
